Active and inactive are the calls of the source. No cut-off for these calls is given here.
Experiments:
Cytochrome P450 2B6 = target: T1, Cytochrome P450 2B6 (Homo sapiens, UniProt P20813); test: Inhibition of human CYP2B6 in human hepatocytes; assay type: ADME, cell-based, Hepatocyte
T1 sequence (P20813 whole entry): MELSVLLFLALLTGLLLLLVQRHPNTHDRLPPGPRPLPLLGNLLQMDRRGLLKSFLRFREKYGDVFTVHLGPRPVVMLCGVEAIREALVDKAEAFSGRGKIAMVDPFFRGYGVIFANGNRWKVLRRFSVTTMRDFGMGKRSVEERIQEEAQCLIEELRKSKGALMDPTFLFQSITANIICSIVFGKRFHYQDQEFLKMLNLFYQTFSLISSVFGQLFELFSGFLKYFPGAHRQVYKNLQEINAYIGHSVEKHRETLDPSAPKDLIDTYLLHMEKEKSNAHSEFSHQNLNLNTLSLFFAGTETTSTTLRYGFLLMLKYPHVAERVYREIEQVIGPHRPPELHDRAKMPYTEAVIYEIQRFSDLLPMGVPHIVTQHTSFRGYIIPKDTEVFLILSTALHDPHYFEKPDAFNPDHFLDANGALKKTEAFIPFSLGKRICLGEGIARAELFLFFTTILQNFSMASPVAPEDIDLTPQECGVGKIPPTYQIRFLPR

Cytochrome P450 3A4 = Cytochrome P450 3A4 (Homo sapiens, UniProt P08684); test: Inhibition of human CYP3A4 in human hepatocytes; assay type: ADME, cell-based, Hepatocyte
Cytochrome P450 3A4, sequence (P08684 whole entry): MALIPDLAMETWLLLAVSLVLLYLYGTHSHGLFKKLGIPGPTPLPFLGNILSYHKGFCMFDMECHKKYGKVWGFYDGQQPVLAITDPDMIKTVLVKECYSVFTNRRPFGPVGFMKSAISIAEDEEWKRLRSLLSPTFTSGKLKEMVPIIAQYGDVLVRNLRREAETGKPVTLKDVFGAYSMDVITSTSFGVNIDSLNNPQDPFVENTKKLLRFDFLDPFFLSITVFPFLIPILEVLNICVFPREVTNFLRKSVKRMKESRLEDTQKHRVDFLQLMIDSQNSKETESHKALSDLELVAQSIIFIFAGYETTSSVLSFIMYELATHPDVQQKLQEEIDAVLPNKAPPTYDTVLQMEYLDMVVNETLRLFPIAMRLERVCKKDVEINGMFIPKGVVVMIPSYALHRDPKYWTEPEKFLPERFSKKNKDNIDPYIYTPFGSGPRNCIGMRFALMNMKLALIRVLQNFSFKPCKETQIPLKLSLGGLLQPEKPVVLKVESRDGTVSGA

[1] = Acute toxicity in mouse assessed as body weight change at 0.75 g/Kg,po; details: in vivo, 750 mg/kg
[2] = target: High affinity 3',5'-cyclic-AMP phosphodiesterase 7A (Homo sapiens, UniProt Q13946); test: Inhibition of recombinant PDE7A1 (130 to 482 residues) (unknown origin) expressed in Escherichia coli BL21 using [3H]cAMP as substrate incubated for 15 mins by liquid scintillation method
High affinity 3',5'-cyclic-AMP phosphodiesterase 7A, sequence (Q13946 whole entry, the tested form may be a part): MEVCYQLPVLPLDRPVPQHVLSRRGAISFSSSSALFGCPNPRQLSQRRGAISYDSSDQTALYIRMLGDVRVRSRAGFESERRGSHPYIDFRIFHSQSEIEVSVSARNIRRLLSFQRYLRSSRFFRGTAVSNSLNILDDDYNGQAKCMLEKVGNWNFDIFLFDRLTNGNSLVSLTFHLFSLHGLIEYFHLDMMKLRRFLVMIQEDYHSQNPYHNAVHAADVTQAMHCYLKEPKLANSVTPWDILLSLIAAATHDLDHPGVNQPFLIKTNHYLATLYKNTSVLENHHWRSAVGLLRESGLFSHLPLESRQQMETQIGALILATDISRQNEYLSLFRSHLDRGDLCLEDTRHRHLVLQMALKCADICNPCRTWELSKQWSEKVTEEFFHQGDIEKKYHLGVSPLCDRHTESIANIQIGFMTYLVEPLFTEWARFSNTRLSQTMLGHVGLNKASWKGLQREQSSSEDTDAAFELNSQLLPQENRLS

[3] = Elimination half life in Sprague-Dawley rat at 2.5 mg/kg, iv; assay type: ADME, organism-based; details: in vivo, read-out: beta t1/2 (converted)
Cytochrome P450 1A2 = target: T2, Cytochrome P450 1A2 (Homo sapiens, UniProt P05177); test: Inhibition of human CYP1A2 in human hepatocytes; assay type: ADME, cell-based, Hepatocyte
T2 sequence (P05177 whole entry): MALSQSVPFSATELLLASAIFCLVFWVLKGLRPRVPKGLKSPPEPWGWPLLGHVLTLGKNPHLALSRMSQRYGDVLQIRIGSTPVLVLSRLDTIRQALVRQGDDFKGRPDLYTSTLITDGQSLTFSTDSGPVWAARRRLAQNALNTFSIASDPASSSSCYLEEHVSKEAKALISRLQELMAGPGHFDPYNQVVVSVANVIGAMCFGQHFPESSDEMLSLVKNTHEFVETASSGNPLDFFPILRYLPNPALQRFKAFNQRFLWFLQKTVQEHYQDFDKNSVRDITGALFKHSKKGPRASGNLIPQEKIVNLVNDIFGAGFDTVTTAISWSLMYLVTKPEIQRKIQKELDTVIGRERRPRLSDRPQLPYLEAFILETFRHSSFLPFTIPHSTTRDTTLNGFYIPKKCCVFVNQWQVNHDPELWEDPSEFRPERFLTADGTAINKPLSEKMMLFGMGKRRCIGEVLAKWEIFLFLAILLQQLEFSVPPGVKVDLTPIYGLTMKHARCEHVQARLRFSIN

[4] = AUC(0 to 24 hrs) in Sprague-Dawley rat at 2.5 mg/kg, iv; assay type: ADME, organism-based; parameters: dose 2.5 mg/kg, route iv; details: in vivo
[5] = Selectivity index, ratio of IC50 for inhibition of recombinant PDE9A2 (181 to 506 residues) (unknown origin) expressed in Escherichia coli BL21 to IC50 for inhibition of recombinant PDE4D2 (86 to 413 residues) (unknown origin) expressed in Escherichia coli BL21
[6] = Metabolic stability in rat liver microsomes assessed as half life; assay type: ADME, Microsome
Mus musculus [7] = test: Anti-inflammatory bowel disease activity in DSS-induced inflammatory bowel disease C57BL/6 mouse model assessed as decrease in rectal bleeding by measuring disease activity index score at 5 mg/kg, iv BID and measured upto 8 days by Haem-occult test; assay type: functional, organism-based; details: time <= 8.0 day
[8] = Selectivity index, ratio of IC50 for inhibition of recombinant PDE4B2 (152 to 487 residues) (unknown origin) expressed in Escherichia coli BL21 to IC50 for inhibition of recombinant PDE4D2 (86 to 413 residues) (unknown origin) expressed in Escherichia coli BL21
[9] = target: cGMP-dependent 3',5'-cyclic phosphodiesterase (Homo sapiens, UniProt O00408); test: Inhibition of recombinant PDE2A (580 to 919 residues) (unknown origin) expressed in Escherichia coli BL21 using [3H]cGMP as substrate incubated for 15 mins by liquid scintillation method
cGMP-dependent 3',5'-cyclic phosphodiesterase, sequence (O00408 whole entry, the tested form may be a part): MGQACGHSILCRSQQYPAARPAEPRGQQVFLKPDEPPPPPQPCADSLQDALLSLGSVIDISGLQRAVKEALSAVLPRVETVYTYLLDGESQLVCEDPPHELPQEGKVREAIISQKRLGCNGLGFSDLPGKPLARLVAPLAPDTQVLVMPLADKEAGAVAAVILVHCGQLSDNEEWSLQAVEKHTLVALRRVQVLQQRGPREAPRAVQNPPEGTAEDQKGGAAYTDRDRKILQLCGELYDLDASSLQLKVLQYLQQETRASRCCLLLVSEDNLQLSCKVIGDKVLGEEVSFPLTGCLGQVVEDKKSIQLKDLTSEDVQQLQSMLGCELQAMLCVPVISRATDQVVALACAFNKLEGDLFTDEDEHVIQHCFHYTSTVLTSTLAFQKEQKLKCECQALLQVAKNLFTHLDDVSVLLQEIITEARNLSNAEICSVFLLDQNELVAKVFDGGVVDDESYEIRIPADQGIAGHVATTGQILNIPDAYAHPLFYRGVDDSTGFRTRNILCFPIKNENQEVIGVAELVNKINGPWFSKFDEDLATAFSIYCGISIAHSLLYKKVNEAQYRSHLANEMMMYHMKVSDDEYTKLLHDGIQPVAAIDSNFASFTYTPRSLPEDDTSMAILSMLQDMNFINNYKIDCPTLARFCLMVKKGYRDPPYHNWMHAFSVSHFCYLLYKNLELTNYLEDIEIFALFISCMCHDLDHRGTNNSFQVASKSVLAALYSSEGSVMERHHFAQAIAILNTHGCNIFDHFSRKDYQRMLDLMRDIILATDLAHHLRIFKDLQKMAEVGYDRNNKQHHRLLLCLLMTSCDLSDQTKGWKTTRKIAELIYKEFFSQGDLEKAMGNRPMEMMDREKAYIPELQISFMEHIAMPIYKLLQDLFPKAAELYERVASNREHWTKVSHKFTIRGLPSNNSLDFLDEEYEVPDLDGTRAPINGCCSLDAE

[10] = Toxicity in twelve hrs fasted Beagle dog assessed as emesis at 10 mg/kg,po and measured upto 180 mins; assay type: organism-based, Canis lupus familiaris; details: in vivo, 3 h
[11] = Selectivity index, ratio of IC50 for inhibition of PDE7A1 (130 to 482 residues) (unknown origin) expressed in Escherichia coli BL21 to IC50 for inhibition of recombinant PDE4D2 (86 to 413 residues) (unknown origin) expressed in Escherichia coli BL21
[12] = Selectivity index, ratio of IC50 for inhibition of recombinant PDE3A (679 to 1087 residues) (unknown origin) expressed in Escherichia coli BL21 to IC50 for inhibition of recombinant PDE4D2 (86 to 413 residues) (unknown origin) expressed in Escherichia coli BL21
Mus musculus [13] = test: Anti-inflammatory bowel disease activity in DSS-induced inflammatory bowel disease C57BL/6 mouse model assessed as decrease in mucosal ulceration in colon at 5 mg/kg, iv BID and measured after 8 days by Haematoxylin and eosin staining based microscopy; assay type: functional, organism-based; details: time 8.0 day
[14] = target: High affinity cGMP-specific 3',5'-cyclic phosphodiesterase 9A (Homo sapiens, UniProt O76083); test: Inhibition of recombinant PDE9A2 (181 to 506 residues) (unknown origin) expressed in Escherichia coli BL21 using [3H]cGMP as substrate incubated for 15 mins by liquid scintillation method
High affinity cGMP-specific 3',5'-cyclic phosphodiesterase 9A, sequence (O76083 whole entry, the tested form may be a part): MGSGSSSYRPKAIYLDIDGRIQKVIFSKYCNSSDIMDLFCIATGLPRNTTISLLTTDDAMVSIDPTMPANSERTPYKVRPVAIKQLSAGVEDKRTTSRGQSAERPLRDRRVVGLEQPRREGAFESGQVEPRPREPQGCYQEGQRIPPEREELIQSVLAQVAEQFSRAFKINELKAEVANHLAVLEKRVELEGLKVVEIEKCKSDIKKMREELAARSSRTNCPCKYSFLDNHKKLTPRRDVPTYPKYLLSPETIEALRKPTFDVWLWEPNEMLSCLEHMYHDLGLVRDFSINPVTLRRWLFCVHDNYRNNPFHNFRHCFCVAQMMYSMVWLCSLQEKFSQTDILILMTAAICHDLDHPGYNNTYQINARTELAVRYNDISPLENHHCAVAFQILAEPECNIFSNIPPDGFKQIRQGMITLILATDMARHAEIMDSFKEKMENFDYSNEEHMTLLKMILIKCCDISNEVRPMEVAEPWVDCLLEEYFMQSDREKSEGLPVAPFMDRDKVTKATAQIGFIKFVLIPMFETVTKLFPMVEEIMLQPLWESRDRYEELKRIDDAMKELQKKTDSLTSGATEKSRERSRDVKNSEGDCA

Mus musculus [15] = test: Anti-inflammatory bowel disease activity in DSS-induced inflammatory bowel disease C57BL/6 mouse model assessed as decrease in diarrhoea by measuring disease activity index score at 5 mg/kg, iv BID and measured upto 8 days; assay type: functional, organism-based; details: time <= 8.0 day
[16] = target: cGMP-inhibited 3',5'-cyclic phosphodiesterase 3A (Homo sapiens, UniProt Q14432); test: Inhibition of recombinant PDE3A (679 to 1087 residues) (unknown origin) expressed in Escherichia coli BL21 using [3H]cAMP as substrate incubated for 15 mins by liquid scintillation method
cGMP-inhibited 3',5'-cyclic phosphodiesterase 3A, sequence (Q14432 whole entry, the tested form may be a part): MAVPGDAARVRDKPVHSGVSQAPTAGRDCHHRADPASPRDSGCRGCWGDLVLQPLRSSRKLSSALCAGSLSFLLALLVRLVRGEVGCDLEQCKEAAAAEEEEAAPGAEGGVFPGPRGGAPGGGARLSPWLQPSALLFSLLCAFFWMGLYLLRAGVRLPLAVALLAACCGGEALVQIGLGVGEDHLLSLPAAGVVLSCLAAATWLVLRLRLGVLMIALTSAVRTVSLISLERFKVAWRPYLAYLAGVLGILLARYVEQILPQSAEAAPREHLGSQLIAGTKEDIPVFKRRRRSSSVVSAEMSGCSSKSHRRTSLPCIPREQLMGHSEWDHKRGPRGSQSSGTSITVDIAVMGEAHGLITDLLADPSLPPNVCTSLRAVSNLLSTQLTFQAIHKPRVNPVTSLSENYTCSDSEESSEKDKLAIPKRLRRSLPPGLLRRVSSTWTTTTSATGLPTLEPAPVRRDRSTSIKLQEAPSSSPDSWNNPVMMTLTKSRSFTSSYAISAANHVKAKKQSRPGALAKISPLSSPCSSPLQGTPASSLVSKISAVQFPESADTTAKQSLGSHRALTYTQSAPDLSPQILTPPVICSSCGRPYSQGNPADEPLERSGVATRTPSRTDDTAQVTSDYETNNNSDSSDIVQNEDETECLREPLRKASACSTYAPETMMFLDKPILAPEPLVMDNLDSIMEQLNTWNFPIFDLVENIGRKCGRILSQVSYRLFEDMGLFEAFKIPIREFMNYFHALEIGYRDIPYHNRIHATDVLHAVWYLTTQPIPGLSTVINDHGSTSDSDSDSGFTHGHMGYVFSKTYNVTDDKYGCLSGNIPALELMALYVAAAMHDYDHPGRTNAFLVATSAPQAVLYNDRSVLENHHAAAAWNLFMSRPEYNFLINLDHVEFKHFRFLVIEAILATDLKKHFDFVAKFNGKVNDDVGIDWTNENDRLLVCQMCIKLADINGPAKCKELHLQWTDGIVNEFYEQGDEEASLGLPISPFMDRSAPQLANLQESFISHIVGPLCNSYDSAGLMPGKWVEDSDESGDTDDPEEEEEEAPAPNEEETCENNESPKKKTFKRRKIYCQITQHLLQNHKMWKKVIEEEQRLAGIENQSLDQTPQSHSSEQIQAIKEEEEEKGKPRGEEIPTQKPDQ

COc1c(OCC2CC2)cc2oc3cc4c(c(OCc5ccncc5)c3c(=O)c2c1CC=C(C)C)C=CC(C)(C)O4
IC50 (Cytochrome P450 2B6): > 25 µM
IC50 (Cytochrome P450 3A4): 6.1 µM
Activity [1]: Non-Toxic
IC50 [2]: 0.015 µM
half-life [3]: 4.18 h
IC50 (Cytochrome P450 1A2): > 25 µM
AUC(0-t) [4]: 6520 ng·h/mL
Ratio IC50 [5]: > 2800
half-life [6]: 7.42 h
Activity (Mus musculus [7]): Active
Ratio IC50 [8]: 2.71
IC50 [9]: > 10 µM
Activity [10]: Non-Toxic
Ratio IC50 [11]: 4.27
Ratio IC50 [12]: > 2800
Activity (Mus musculus [13]): Active
IC50 [14]: > 10 µM
Activity (Mus musculus [15]): Active
IC50 [16]: > 10 µM

Source: ChEMBL document CHEMBL5338717, “Discovery of novel PDE4 inhibitors targeting the M-pocket from natural mangostanin with improved safety for the treatment of Inflammatory Bowel Diseases” (Eur J Med Chem, 2022)
